Columns and labels:
[1] = Amount of antimycotic in the nail after topical application of the lacquer compositions, HPLC after extraction of distal nail material; format: in vivo, human
Procedure: The amount of antimycotic in the nail after application of the compositions according to the invention was determined by HPLC measurements after extraction of distal nail material obtained on cutting the nails of volunteers.
After treatment 2× a week for 6 weeks, the values found for the composition of Example 3 were as follows:
After treatment 2× a week for 2 weeks, the values found for the composition of Example 4 were as follows: […]

[2] = oral administration of 100 mg of itraconazole each day for 3 months; cited from earlier work
[3] = composition of Example 3, topical, treatment 2x a week for 6 weeks, distal nail material of volunteers

amount of antimycotic in the nail ([1]; human, in vivo, 2 weeks)	amount of antimycotic in the nail [1, 3]	amount of antimycotic in the nail ([1]; composition of Example 4, topical, treatment 2x a week for 2 weeks, distal nail material of volunteers)	SMILES	itraconazole concentration in the distal nail plate [2]
17 μg/g of nail	–	–	OC(Cn1cncn1)(Cn1cncn1)c1ccc(F)cc1F [fluconazole, α-(2,4-difluorophenyl)-α-(1H-1,2,4-triazol-1-ylmethyl)-1H-1,2,4-triazol-1-ethanol]	–
–	800 ng/g of nail	–	CCC(C)n1ncn(-c2ccc(N3CCN(c4ccc(OCC5COC(Cn6cncn6)(c6ccc(Cl)cc6Cl)O5)cc4)CC3)cc2)c1=O (centres unmarked) [itraconazole]	100 ng/g of nail
–	140 μg/g of nail	92 μg/g of nail	Cc1cc(C2CCCCC2)n(O)c(=O)c1 [ciclopirox, 6-cyclohexyl-1-hydroxy-4-methyl-2(1H)-pyridone]	–

Reference: patent publication US20010046478A1, “Antiinfective combinations and their use for the topical treatment of fungal infections of the toenails and fingernails” (priority 2000, published 2001)
